Measurements from patent publication US12441725B2, “ISO-citrate dehydrogenase (IDH) inhibitor” (ZHEJIANG METON PHARMACEUTICAL CO., LTD, priority 2019, dated 2025).

Tests used:
[1] = target: T1, IDH1 R132H (Homo sapiens, UniProt O75874, R132H); test: Biochemical assay for IDH inhibition (NADPH fluorescence), mutant IDH1 R132H; conditions: 50 nM IDH1-R132H, 1 hour pre-incubation, in triplet
T1 construct: 6xHis
Summary of the method: (§1)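 Mutant enzyme (25 nM R132C or 50 nM R132H) was preincubated 1 h at room temperature with compound in pH 7.5 Tris buffer containing 1.33 mM α-KG, and the reaction was then started with NADPH (80 μM solution). NADPH consumption was followed by fluorescence (Ex 340/Em 460 nm) for 15 min. IC50 was derived from background-corrected linear rates relative to vehicle, run in triplicate.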

[2] = target: T2, IDH1 R132C (Homo sapiens, UniProt O75874, R132C); test: Biochemical assay for IDH inhibition (NADPH fluorescence), mutant IDH1 R132C; conditions: 25 nM IDH1-R132C, 1 hour pre-incubation, in triplet
T2 construct: 6xHis
T2 sequence (O75874 whole entry R132C): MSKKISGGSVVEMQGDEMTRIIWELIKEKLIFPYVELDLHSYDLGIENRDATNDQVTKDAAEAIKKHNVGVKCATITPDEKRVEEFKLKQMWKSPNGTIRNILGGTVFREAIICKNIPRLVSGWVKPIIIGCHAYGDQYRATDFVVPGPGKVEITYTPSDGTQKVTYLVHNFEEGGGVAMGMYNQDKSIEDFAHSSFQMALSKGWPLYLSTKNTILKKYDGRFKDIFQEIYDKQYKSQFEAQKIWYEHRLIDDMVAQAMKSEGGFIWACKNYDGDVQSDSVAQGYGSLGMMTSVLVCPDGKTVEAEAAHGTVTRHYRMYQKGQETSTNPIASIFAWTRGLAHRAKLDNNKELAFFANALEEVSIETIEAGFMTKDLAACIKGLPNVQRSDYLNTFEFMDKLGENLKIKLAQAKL
Summary of the method: as §1

[3] = target: T3, IDH (endogenous IDH1 R132C) in HT1080 cell (Homo sapiens, UniProt O75874, R132C); test: Cell-based assay for IDH inhibition (decrease of D-2-HG) in HT1080 cells; conditions: human fibrosarcoma cell line HT1080, 16 hours treatment, D-2-HG by LC-MS, in triplet
T3 construct: which harbor endogenous heterozygous IDH1 R132C and R132H mutation respectively and accumulate D-2-HG
T3 sequence (O75874 2-414 R132C): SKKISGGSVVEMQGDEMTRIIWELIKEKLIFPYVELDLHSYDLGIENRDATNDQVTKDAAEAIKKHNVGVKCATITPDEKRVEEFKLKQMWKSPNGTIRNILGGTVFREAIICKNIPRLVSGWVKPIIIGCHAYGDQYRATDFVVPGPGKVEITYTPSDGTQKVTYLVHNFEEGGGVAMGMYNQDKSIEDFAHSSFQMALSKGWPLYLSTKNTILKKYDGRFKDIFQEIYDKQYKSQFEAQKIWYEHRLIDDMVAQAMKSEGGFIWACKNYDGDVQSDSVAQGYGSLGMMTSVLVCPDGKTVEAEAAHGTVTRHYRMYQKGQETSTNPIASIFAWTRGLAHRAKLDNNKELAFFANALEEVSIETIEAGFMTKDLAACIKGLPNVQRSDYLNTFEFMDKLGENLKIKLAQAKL
Summary of the method: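 HT1080 cells with endogenous IDH1 R132C, grown in DMEM/10% FBS, treated with compound at several concentrations for 16 h. Metabolites extracted in cold 40% methanol/40% acetonitrile and D-2-HG measured by HILIC LC-MS/MS, normalized to glutamate. IC50 from D-2-HG relative to DMSO controls; run in triplicate.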

T1 sequence (O75874 whole entry R132H): as the sequence (O75874 whole entry R132C) above, with C132H counted along it

Structure (SMILES) | IC50 [1] [µM] | IC50 [2] [µM] | IC50 [3] [µM]
CCN1Cc2c(ccnc2N[C@@H](C)c2cc(F)c(-c3ccnc(C(F)(F)F)c3)cc2F)C1=O [Compound 88, (S)-4-((1-(2,5-difluoro-4-(2-(trifluoromethyl)pyridin-4-yl)phenyl)ethyl)amino)-2-ethyl-2,3-dihydro-1H-pyrrolo[3,4-c]pyridin-1-one] | 0.5 to 1 | > 1 | > 1
CCN1Cc2c(ccnc2N[C@@H](C)c2cc(F)c(-c3ccnc(C4CCC4)c3)cc2F)C1=O [Compound 89, (S)-4-((1-(4-(2-cyclobutylpyridin-4-yl)-2,5-difluorophenyl)ethyl)amino)-2-ethyl-2,3-dihydro-1H-pyrrolo[3,4-c]pyridin-1-one] | < 0.1 | 0.1 to 0.5 | 0.1 to 0.5
CCN1Cc2c(ccnc2N[C@@H](C)c2cc(F)c(-c3ccnc(C4CC4)c3)cc2F)C1=O [Compound 90, (S)-4-((1-(4-(2-cyclopropylpyridin-4-yl)-2,5-difluorophenyl)ethyl)amino)-2-ethyl-2,3-dihydro-1H-pyrrolo[3,4-c]pyridin-1-one] | 0.1 to 0.5 | > 1 | 0.5 to 1
CCN1Cc2c(ccnc2N[C@@H](C)c2cc(F)c(-c3ccnc(CC4CC4)c3)cc2F)C1=O [Compound 91, (S)-4-((1-(4-(2-(cyclopropylmethyl)pyridin-4-yl)-2,5-difluorophenyl)ethyl)amino)-2-ethyl-2,3-dihydro-1H-pyrrolo[3,4-c]pyridin-1-one] | 0.1 to 0.5 | 0.5 to 1 | 0.1 to 0.5
CCN1Cc2c(ccnc2N[C@@H](C)c2cc(F)c(-c3ccnc(-c4ccn(C)c4)c3)cc2F)C1=O [Compound 92, (S)-4-((1-(2,5-difluoro-4-(2-(1-methyl-1H-pyrrol-3-yl)pyridin-4-yl)phenyl)ethyl)amino)-2-ethyl-2,3-dihydro-1H-pyrrolo[3,4-c]pyridin-1-one] | > 1 | > 1 | 0.1 to 0.5
CCN1Cc2c(ccnc2N[C@@H](C)c2cc(F)c(-c3ccnc(C4COC4)c3)cc2F)C1=O [Compound 93, (S)-4-((1-(2,5-difluoro-4-(2-(oxetan-3-yl)pyridin-4-yl)phenyl)ethyl)amino)-2-ethyl-2,3-dihydro-1H-pyrrolo[3,4-c]pyridin-1-one] | > 1 | > 1 | > 1
CCN1Cc2c(ccnc2N[C@@H](C)c2cc(F)c(-c3ccnc(C4(O)COC4)c3)cc2F)C1=O [Compound 94, (S)-4-((1-(2,5-difluoro-4-(2-(3-hydroxyoxetan-3-yl)pyridin-4-yl)phenyl)ethyl)amino)-2-ethyl-2,3-dihydro-1H-pyrrolo[3,4-c]pyridin-1-one] | > 1 | > 1 | > 1

Next, values leading:

IC50 [1] [µM] | IC50 [2] [µM] | IC50 [3] [µM] | Structure (SMILES)
> 1 | > 1 | 0.5 to 1 | CCN1Cc2c(ccnc2N[C@@H](C)c2cc(F)c(-c3ccnc(Cl)c3)cc2F)C1=O [Compound 95, (S)-4-((1-(4-(2-chloropyridin-4-yl)-2,5-difluorophenyl)ethyl)amino)-2-ethyl-2,3-dihydro-1H-pyrrolo[3,4-c]pyridin-1-one]
0.1 to 0.5 | 0.5 to 1 | 0.1 to 0.5 | CCN1Cc2c(ccnc2N[C@@H](C)c2cc(F)c(-c3ccnc(-c4ccnc(Cl)c4)c3)cc2F)C1=O [Compound 96, (S)-4-((1-(4-(2′-chloro-[2,4′-bipyridin]-4-yl)-2,5-difluorophenyl)ethyl)amino)-2-ethyl-2,3-dihydro-1H-pyrrolo[3,4-c]pyridin-1-one]
0.1 to 0.5 | 0.5 to 1 | 0.1 to 0.5 | CCN1Cc2c(ccnc2N[C@@H](C)c2cc(F)c(-c3ccnc(C4CC(F)(F)C4)c3)cc2F)C1=O [Compound 97, (S)-4-((1-(4-(2-(3,3-difluorocyclobutyl)pyridin-4-yl)-2,5-difluorophenyl)ethyl)amino)-2-ethyl-2,3-dihydro-1H-pyrrolo[3,4-c]pyridin-1-one]
